Test results from patent US6933392B2, “Hydroxy substituted fused naphthyl-azoles and fused indeno-azoles and their use for the treatment of glaucoma” (Alcon, Inc., priority 2001, dated 2005).
Structures can show the parent of a compound that is named as a salt. Where two headings read alike, the source gives them in different places.

Tests used:
[1] = molecular target: T1, 5-HT2 receptors in A7r5 rat vascular smooth muscle cells (Rattus norvegicus, UniProt P14842); assay: 5-HT2 functional assay: [Ca2+]i mobilization (FLIPR); format: cell-based; settings: for Emax: read-out: Efficacy (Emax, %)
T1 construct: endogenous in cells; host or cells: A7r5 rat vascular smooth muscle cells
Description: 5-HT2 Functional Assay: [Ca^2+]i Mobilization
The receptor-mediated mobilization on intracellular calcium ([Ca^2+]i) was studied using the Fluorescence Imaging Plate Reader (FLIPR) instrument. Rat vascular smooth muscle cells, A7r5, were grown in a normal media of DMEM/10% FBS and 10 μg/mL gentamycin. Confluent cell monolayers were trypsinized, pelleted, and re-suspended in normal media. Cells were seeded in a 50 μL volume at a density of 20,000 cells/well in a black wall, 96-well tissue culture plate and grown for 2 days.
On the day of the experiment, one vial of FLIPR Calcium Assay Kit dye was re-suspended in 50 mL of a FLIPR buffer consisting of Hank's Balanced Salt Solution (HBSS), 20 mM HEPES, and 2.5 mM probenecid, pH 7.4. Cells were loaded with the calcium-sensitive dye by addition of an equal volume (50 μL) to each well of the 96-well plate and incubated with dye for 1 h at 23° C.
Compounds were diluted 1:50 in 20% DMSO/20% ethanol. For “hit” screening, compounds were further diluted 1:10 in FLIPR buffer and tested at a final concentration of 10 μM.
The compound plate and cell plate were placed in the FLIPR instrument. At the beginning of an experimental run, a signal test was performed to check the basal fluorescence signal from the dye-loaded cells and the uniformity of the signal across the plate. The basal fluorescence was adjusted between 8000-12000 counts by modifying the exposure time, the camera F-stop, or the laser power. Instrument settings for a typical assay were the following: laser power 0.3-0.6 W, camera F-stop F/2, and exposure time 0.4 sec. An aliquot (25 μL) of the test compound was added to the existing 100 μL dye-loaded cells at a dispensing speed of 50 μL/sec. Fluorescence data were collected in real-time at 1.0 sec intervals for the first 60 secs and at 6.0 sec intervals for an additional 120 secs.

brain 5-HT2 receptors = brain 5-HT2 receptors (Rattus norvegicus, UniProt P14842); assay: 5-HT2 receptor binding assay ([125I]DOI competition); settings: competition for [125I]DOI binding, rat or human cerebral cortex homogenates
Description: 5-HT2 Receptor Binding Assay
The assay mixture is incubated for 1 hour at 23° C. in polypropylene tubes and the assays terminated by rapid vacuum filtration over Whatman GF/B glass fiber filters previously soaked in 0.3% polyethyleneimine using ice-cold buffer. Test compounds (at different concentrations) are substituted for methiothepin. Filter-bound radioactivity is determined by scintillation spectrometry on a beta counter. The data are analyzed using a non-linear, iterative curve-fitting computer program [Trends Pharmacol. Sci., 16, 413 (1995)] to determine the compound affinity parameter. The concentration of the compound needed to inhibit the [^125I]DOI binding by 50% of the maximum is termed the IC50 or Ki value.

[2] = A7r5 cells, FLIPR, percentage of maximum 5-HT-induced response
[3] = A7r5 cells, FLIPR, read-out: EC50, nM (5-HT2 functional, [Ca2+]i mobilization)

T1 sequence (P14842 whole entry): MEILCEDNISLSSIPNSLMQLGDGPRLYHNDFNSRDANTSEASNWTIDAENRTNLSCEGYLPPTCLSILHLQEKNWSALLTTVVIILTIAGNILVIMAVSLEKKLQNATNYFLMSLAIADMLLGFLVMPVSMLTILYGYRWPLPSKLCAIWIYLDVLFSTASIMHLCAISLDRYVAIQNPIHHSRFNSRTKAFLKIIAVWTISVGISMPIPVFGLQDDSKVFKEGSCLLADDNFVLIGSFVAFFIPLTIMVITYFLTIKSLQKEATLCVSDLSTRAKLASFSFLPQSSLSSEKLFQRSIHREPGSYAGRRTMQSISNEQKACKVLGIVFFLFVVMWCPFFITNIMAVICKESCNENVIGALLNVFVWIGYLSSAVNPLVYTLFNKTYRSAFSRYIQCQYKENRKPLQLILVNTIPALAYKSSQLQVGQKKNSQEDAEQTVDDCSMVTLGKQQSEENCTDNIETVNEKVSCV
Chain of brain 5-HT2 receptors (P14842 whole entry): as above

Row | Structure (SMILES) | Emax [1, 2] [%] | EC50 [1, 3] [nM] | EC50 [1] [nM] | IC50 (brain 5-HT2 receptors) [nM] | Efficacy (Emax, %) [1, 2] [%]
1 | CC(N)Cn1ncc2c1-c1ccc(O)cc1C2 (stereo not shown) [Example 5, 1-(2-Aminopropyl)-1,4-dihydro-indeno[1,2-c]pyrazol-6-ol] | 64 | 328 | – | – | –
2 | CC(N)Cn1ncc2ccc3cc(O)ccc3c21 (stereo not shown) [Example 4, 1-(2-Aminopropyl)-2H-benzo[g]indazol-7-ol] | 79 | – | 211 | – | –
3 | NCCc1c[nH]c2ccc(O)cc12 [Example 5-HT, 5-Hydroxytryptamine, reference compound] | 107 | – | – | – | –
4 | CC(N)Cn1ncc2c1-c1cc(O)ccc1CC2 (stereo not shown) [Example 2, 1-(2-Aminopropyl)-4,5-dihydro-1H-benzo[g]indazol-8-ol Dihydrochloride] | 46 | 103 | – | – | –
5 | COc1cc(CC(C)N)c(OC)cc1I (stereo not shown) [DOI, reference compound] | – | 30.2 | – | 0.33 | 31
